Values of other authors, collected in patent US8324185B2, “Composition for the treatment of obesity and hyperlipidemia” (Nucitec, S.A. DF C.V., priority 2004, dated 2012).

Legend:
[1] = target: T1, pancreatic lipase (Homo sapiens, UniProt P16233); conditions: in vitro
T1 sequence (P16233 17-465): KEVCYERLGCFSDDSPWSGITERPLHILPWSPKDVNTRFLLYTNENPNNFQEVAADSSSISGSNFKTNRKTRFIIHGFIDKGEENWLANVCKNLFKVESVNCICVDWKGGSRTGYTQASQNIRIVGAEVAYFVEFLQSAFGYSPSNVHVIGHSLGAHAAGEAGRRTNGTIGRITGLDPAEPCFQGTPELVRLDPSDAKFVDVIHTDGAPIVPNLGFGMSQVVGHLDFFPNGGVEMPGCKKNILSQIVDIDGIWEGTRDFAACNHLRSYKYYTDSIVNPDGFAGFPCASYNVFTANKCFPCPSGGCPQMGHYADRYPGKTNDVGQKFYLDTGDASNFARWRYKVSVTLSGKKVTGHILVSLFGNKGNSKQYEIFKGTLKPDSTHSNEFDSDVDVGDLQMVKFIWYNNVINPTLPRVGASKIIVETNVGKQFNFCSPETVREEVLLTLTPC

[2] = dietary fat

## NCCCC[C@H](N)C(=O)O [lisine]
other
  pK value of the amino group: ~9

## CCCCCCCCCCC[C@@H](C[C@@H]1OC(=O)[C@H]1CCCCCC)OC(=O)[C@H](CC(C)C)NC=O [orlistat]
[1]
  inhibition of pancreatic lipase activity: fully inhibits
[2]
  reduction in fat absorption from the diet: 30%
